Values quoted from earlier work in patent US20030198684A1 (priority 2002, published 2003).
Like-named read-outs stand apart in the source and are kept apart here.

Experiments:
[1] = body builders
[2] = in vivo
[3] = patients on dialysis, compared with placebo
young female rats = conditions: constant infusion
[4] = supplementation
aromatase = molecular target: T1, aromatase (Homo sapiens, UniProt P11511); conditions: compared with chrysin, AG and ANG
T1 sequence (P11511 1-503): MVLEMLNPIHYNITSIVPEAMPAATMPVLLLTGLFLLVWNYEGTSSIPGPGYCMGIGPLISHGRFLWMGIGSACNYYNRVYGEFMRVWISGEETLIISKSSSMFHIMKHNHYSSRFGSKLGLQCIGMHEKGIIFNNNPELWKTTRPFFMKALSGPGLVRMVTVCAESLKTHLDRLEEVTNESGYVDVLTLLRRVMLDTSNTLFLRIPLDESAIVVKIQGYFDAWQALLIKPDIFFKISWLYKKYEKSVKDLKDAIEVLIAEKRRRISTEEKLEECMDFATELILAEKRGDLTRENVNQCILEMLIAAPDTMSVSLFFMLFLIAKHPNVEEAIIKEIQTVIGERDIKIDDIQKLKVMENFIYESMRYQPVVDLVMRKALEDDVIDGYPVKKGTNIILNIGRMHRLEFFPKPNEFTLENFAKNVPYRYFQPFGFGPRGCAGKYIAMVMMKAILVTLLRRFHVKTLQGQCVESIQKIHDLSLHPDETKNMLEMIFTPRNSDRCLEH

[5] = 300 mg/wk for six weeks; TE: shoulders; ND: shoulders and chest
[6] = for waking erection: Asian hypogonadal men; for sexual interest and activity, spontaneous erection: Caucasian hypogonadal men
[7] = HIV-infected men, pharmacological doses
[8] = supplementation; remark: listed apart in the source
[9] = in vivo; remark: listed apart in the source
[10] = tested on: prostate and seminal vesicle weights

C[C@]12CC[C@H](O)CC1=CC[C@@H]1[C@@H]2CC[C@]2(C)C(=O)CC[C@@H]12 [DHEA, dehydro-epiandrosterone]
plasma testosterone (50 mg dose of DHEA): restored plasma testosterone to levels similar to those observed in young women
delta 5-androstenediol (50 mg or 200 mg DHEA): small increase
plasma delta 4-androstenedione increase (50 mg or 200 mg DHEA): significant and dose dependent
plasma estrogens, particularly estradiol (50 mg or 200 mg DHEA): significant and dose dependent increase
plasma testosterone (200 mg dose of DHEA): important increase of plasma testosterone, slightly below the levels observed in normal men
increase of plasma dihydrotestosterone levels (both doses of DHEA): small at both doses

C[C@]12CC[C@H]3[C@@H](CCC4=CC(=O)CC[C@@H]43)[C@@H]1CC[C@@H]2O [nandrolone, 19-nor-testosterone]
decrease in HDL-choresterol and diastolic blood pressure [1]: 25-27%
azoospermia [2]: azoospermia (lack of sperm) associated with nandrolone use
lean body mass [3]: increased significantly
energy expenditure (young female rats): increased energy expenditure

C[C@]12CC[C@H]3[C@@H](CC=C4C[C@@H](O)CC[C@@]43C)[C@@H]1CC[C@@H]2O [5-androstenediol]
lipid deposition or heat production (young female rats): did not have a significant effect
proportion of protein in the body composition (young female rats): increased

C[C@]12CCC(=O)C=C1CC[C@@H]1[C@@H]2CC[C@]2(C)C(=O)CC[C@@H]12 [4-androstenedione]
serum testosterone [4]: produced elevations in serum testosterone

COc1ccc(-c2coc3cc(O)cc(O)c3c2=O)cc1 [Biochanin A, 5,7-dihydroxy-4′-methoxyisoflavone]
aromatase inhibition (in words) (aromatase): inhibited aromatase, but to a lesser degree

CCCCCCC(=O)O[C@H]1CC[C@H]2[C@@H]3CCC4=CC(=O)CC[C@]4(C)[C@H]3CC[C@]12C [TE, testosterone enanthate]
body circumferences (of fifteen) [5]: significant increases
waking erection [6]: increased waking erection
sexual interest and activity, spontaneous erection [6]: significant increases

CCCCCCCCCC(=O)O[C@H]1CC[C@H]2[C@@H]3CCC4=CC(=O)CC[C@@H]4[C@H]3CC[C@]12C [nandrolone decanoate, 19-nor-testosterone decanoate]
body circumferences (of fifteen) [5]: significant increases
total weight, lean body mass, body cell mass, muscle size, and strength [7]: significant gains

C[C@]12CC[C@H]3[C@@H](CCC4=C[C@@H](O)CC[C@@]43C)[C@@H]1CC[C@@H]2O [4-androstenediol]
urine testosterone concentration relative to 4androstenedione [8]: 10 fold
human serum testosterone levels [9]: produce elevations in human serum testosterone levels

C[C@]12CC[C@H]3[C@@H](CCC4=CC(=O)CC[C@@]43C)[C@@H]1CC[C@@H]2O [testosterone]
lipid deposition or heat production (young female rats): did not have a significant effect
proportion of protein in the body composition (young female rats): increased

C[C@@H]1CC2=CC(=O)CC[C@@H]2[C@H]2CC[C@]3(C)[C@@H](O)CC[C@H]3[C@@H]21 [MENT, 7α-methyl-19-nor-testosterone]
waking erection [6]: increased waking erection
sexual interest and activity, spontaneous erection [6]: significant increases
androgenic potency relative to testosterone [10]: four- to five-times more androgenic than testosterone
anabolic potency relative to testosterone (levator ani muscles): ten-times as potent as testosterone
